# Columns and labels:
# PC-3 = assay: Cytotoxicity against human PC3 cells upto 100 uM after 24 hrs by XTT method; type: functional, cell-based
# [1] = target: Butyrylcholinesterase (Equus caballus) (UniProt Q9N1N9); assay: Inhibition of equine BChE at 100 uM by Ellman's method
# [2] = target: T1, Acetylcholinesterase (Bos taurus) (UniProt P23795); assay: Inhibition of bovine AChE at 100 uM by Ellman's method
# T1 sequence (whole entry): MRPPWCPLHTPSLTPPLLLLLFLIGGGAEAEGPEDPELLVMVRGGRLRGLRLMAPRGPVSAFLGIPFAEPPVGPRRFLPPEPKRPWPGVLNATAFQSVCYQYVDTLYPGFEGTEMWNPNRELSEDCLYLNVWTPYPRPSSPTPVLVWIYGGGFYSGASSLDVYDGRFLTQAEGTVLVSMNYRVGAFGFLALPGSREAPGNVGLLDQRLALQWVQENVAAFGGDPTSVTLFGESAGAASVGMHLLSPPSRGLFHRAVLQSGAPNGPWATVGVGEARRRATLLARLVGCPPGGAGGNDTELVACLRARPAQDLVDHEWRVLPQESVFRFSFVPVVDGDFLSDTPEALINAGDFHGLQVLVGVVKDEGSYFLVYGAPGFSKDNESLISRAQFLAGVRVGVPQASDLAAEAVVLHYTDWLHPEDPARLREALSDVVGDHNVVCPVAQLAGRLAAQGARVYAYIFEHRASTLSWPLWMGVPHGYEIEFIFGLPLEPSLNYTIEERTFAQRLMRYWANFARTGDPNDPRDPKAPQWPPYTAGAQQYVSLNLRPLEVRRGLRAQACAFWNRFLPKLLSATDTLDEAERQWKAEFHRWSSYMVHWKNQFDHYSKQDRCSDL
structure (smiles),measurement,setting,value
CC1=N[C@H](C(=O)O)Cc2c1[nH]c1cc(O)ccc21,Activity,PC-3,Not toxic
same,inhibition,[1],< 50%
same,inhibition,[2],< 50%

# Source: ChEMBL document CHEMBL1141296, “Brunneins A-C, beta-carboline alkaloids from Cortinarius brunneus” (J Nat Prod, 2007)
